Reference: patent publication US8735398B2 (Bristol-Myers Squibb Company, priority 2009, dated 2014)
Read-outs that look alike come from different tables or passages of the source.

Test system: HCV 1b genotype
Assay: HCV replicon assay (HCV-neo replicon cells, wild-type)
Assay type: cell-based, Hepatitis C virus
Conditions: HCV 1b genotype replicon
Outline: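 HCV-neo replicon cells (wild-type) and replicon cells carrying NS5A resistance substitutions were treated with compounds; assay per O'Boyle et al. 2005, with luciferase-reporter read-out variants also used.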

[1] = Hepatitis C virus, class symbol, read-out: EC50 Range against HCV 1b
[2] = Hepatitis C virus, read-out: EC50 1b
[3] = Hepatitis C virus, class symbols, read-out: EC50 Range against HCV 1b

O=C(Nc1ccc(-c2ccc(-c3ccc(NC(=O)[C@@H]4CCCN4C(=O)Cc4ccccc4)cc3)s2)cc1)[C@@H]1CCCN1C(=O)Cc1ccccc1 [OL-22, (2S,2′S)-N,N′-(2,5-thienediyldi-4,1-phenylene)bis(1-(phenylacetyl)-2-pyrrolidinecarboxamide)]
EC50 [1]: 0.00457 to 0.099 µM

C[C@H](NC(=O)[C@@H](O)c1ccccc1)C(=O)Nc1ccc(-c2nnc(-c3ccc(NC(=O)[C@H](C)NC(=O)[C@@H](O)c4ccccc4)cc3)o2)cc1 [RK-24, (2S,2′S)-N,N′-(1,3,4-oxadiazole-2,5-diyldi-4,1-phenylene)bis(2-(((2S)-2-hydroxy-2-phenylacetyl)amino)propanamide)]
EC50 [1]: 0.1 to 0.999 µM

O=C(Nc1ccc(-c2nnc(-c3ccc(NC(=O)[C@@H]4CCCN4C(=O)OCc4ccccc4)cc3)o2)cc1)[C@@H]1CCCN1C(=O)OCc1ccccc1 [MS-8, (2S,2′S)-2,2′-[1,3,4-oxadiazole-2,5-diylbis(4,1-phenyleneiminocarbonyl)]bis-1-pyrrolidinecarboxylic acid, bis(phenylmethyl) ester]
EC50 [1]: 0.00457 to 0.099 µM
EC50 [2]: 0.09 µM

O=C(Nc1ccc(-c2cnc(-c3ccc(NC(=O)[C@@H]4CCCN4C(=O)c4cc(F)cc(F)c4)cc3)o2)cc1)[C@@H]1CCCN1C(=O)c1cc(F)cc(F)c1 [XY-7, (2S,2′S)-N,N′-(1,3-oxazole-2,5-diyldi-4,1-phenylene)bis(1-(3,5-difluorobenzoyl)-2-pyrrolidinecarboxamide)]
EC50 [3]: 0.1 to 0.999 µM

CCc1ccccc1C(=O)N1CC=C[C@H]1C(=O)Nc1ccc(-c2ncc(-c3ccc(NC(=O)[C@@H]4CCCN4C(C)=O)cc3)o2)cc1 [Example D-2, (2S)-N-[4-[5-[4-[[[(2S)-1-acetyl-2-pyrrolidinyl]carbonyl]amino]phenyl]-2-oxazolyl]phenyl]-1-(2-ethylbenzoyl)-2,5-dihydro-1H-pyrrole-2-carboxamide]
EC50 [1]: 0.1 to 0.999 µM

O=C(Nc1ccc(-c2cnc(-c3ccc(NC(=O)[C@@H]4CCCN4C(=O)[C@H]4CCCN4)cc3)o2)cc1)[C@@H]1CCCN1C(=O)[C@H]1CCCN1 [Example D-35, (2S,2′S)-N,N′-(1,3-oxazole-2,5-diyldi-4,1-phenylene)bis(1-((2R)-2-pyrrolidinylcarbonyl)-2-pyrrolidinecarboxamide)]
EC50 [1]: 1 to 10 µM
EC50 [2]: 5.24 µM

CC(=O)N1CCC[C@H]1C(=O)Nc1ccc(-c2nnc(-c3ccc(NC(=O)[C@@H]4CCCN4C(=O)Cc4cccnc4)cc3)o2)cc1 [Example D-64, (2S)-1-acetyl-N-[4-[5-[4-[[[(2S)-1-(3-pyridinylacetyl)-2-pyrrolidinyl]carbonyl]amino]phenyl]-1,3,4-oxadiazol-2-yl]phenyl]-2-pyrrolidinecarboxamide]
EC50 [1]: 1 to 10 µM
EC50 [2]: 6.57 µM

O=C(Nc1ccc(-c2cnc(-c3ccc(NC(=O)[C@@H]4CCCN4C(=O)c4nc5ccccc5s4)cc3)o2)cc1)[C@@H]1CCCN1C(=O)c1nc2ccccc2s1 [JG-29, (2S,2′S)-N,N′-(1,3-oxazole-2,5-diyldi-4,1-phenylene)bis(1-(1,3-benzothiazol-2-ylcarbonyl)-2-pyrrolidinecarboxamide)]
EC50 [1]: 0.1 to 0.999 µM

O=C(Nc1ccc(-c2ccc(-c3ccc(NC(=O)[C@@H]4CCCN4C(=O)OCc4ccccc4)cc3)o2)cc1)[C@@H]1CCCN1C(=O)OCc1ccccc1 [JG-54, dibenzyl (2S,2′S)-2,2′-(2,5-furandiylbis(4,1-phenylenecarbamoyl))di(1-pyrrolidinecarboxylate)]
EC50 [1]: 0.1 to 0.999 µM

C[C@H](NC(=O)[C@H](O)c1ccccc1)C(=O)Nc1ccc(-c2cc(-c3ccc(NC(=O)[C@@H](C)NC(=O)[C@H](O)c4ccccc4)cc3)[nH]n2)cc1 [OL-44, (S)-2-((R)-2-hydroxy-2-phenylacetamido)-N-(4-(5-(4-((R)-2-((R)-2-hydroxy-2-phenylacetamido)propanamido)phenyl)-1H-pyrazol-3-yl)phenyl)propanamide]
EC50 [1]: < 0.00457 µM

COc1cc(C(=O)N[C@@H](C)C(=O)Nc2ccc(-c3nnc(-c4ccc(NC(=O)[C@H](C)NC(=O)c5cc(Cl)nc(OC)c5)cc4)o3)cc2)cc(Cl)n1 [RK-41, N,N′-(1,3,4-oxadiazole-2,5-diylbis(4,1-phenyleneimino((2S)-1-oxo-1,2-propanediyl)))bis(2-chloro-6-methoxyisonicotinamide)]
EC50 [3]: 1 to 10 µM

Cc1nc(-c2ccc(NC(=O)[C@@H]3CCCN3C(=O)Cc3ccccc3)cc2)c(-c2ccc(NC(=O)[C@@H]3CCCN3C(=O)Cc3ccccc3)cc2)s1 [Example D-44, (2S,2′S)-N,N′-((2-methyl-1,3-thiazole-4,5-diyl)di-4,1-phenylene)bis(1-(phenylacetyl)-2-pyrrolidinecarboxamide)]
EC50 [1]: 0.00457 to 0.099 µM

O=C(Nc1ccc(-c2cnc(-c3ccc(NC(=O)[C@@H]4CCCN4C(=O)C(O)c4cccs4)cc3)o2)cc1)[C@@H]1CCCN1C(=O)C(O)c1cccs1 (stereo partly drawn) [JR-6, (2S,2′S)-N,N′-(2,5-oxazolediyldi-4,1-phenylene)bis[1-(hydroxy-2-thienylacetyl)-2-pyrrolidinecarboxamide]]
EC50 [3]: < 0.00457 µM
EC50 [2]: < 0.005 µM

CN(C)C(C(=O)N1CCC[C@H]1C(=O)Nc1ccc(-c2cnc(-c3ccc(NC(=O)[C@@H]4CCCN4C(=O)C(c4ccc(F)cc4F)N(C)C)cc3)o2)cc1)c1ccc(F)cc1F (single isomer, unassigned) [Example D-7]
EC50 (class symbol, read-out: EC50 Range against HCV 1b): 0.00457 to 0.099 µM

O=C(Nc1ccc(-c2cc(-c3ccc(NC(=O)[C@@H]4CCCN4C(=O)[C@H](O)c4ccccc4)cc3)[nH]n2)cc1)[C@@H]1CCCN1C(=O)[C@H](O)c1ccccc1 [JG-32, (2S,2′S)-N,N′-(1H-pyrazole-3,5-diyldi-4,1-phenylene)bis(1-((2R)-2-hydroxy-2-phenylacetyl)-2-pyrrolidinecarboxamide)]
EC50 [1]: < 0.00457 µM

CC(=O)N1CCC[C@H]1C(=O)Nc1ccc(-c2cnc(-c3ccc(NC(=O)C4CC(=O)N(CCc5cccs5)C4)cc3)o2)cc1 (stereo partly drawn) [MS-5, (2S)-1-acetyl-N-[4-[2-[4-[[[5-oxo-1-[2-(2-thienyl)ethyl]-3-pyrrolidinyl]carbonyl]amino]phenyl]-5-oxazolyl]phenyl]-2-pyrrolidinecarboxamide]
EC50 [1]: 0.1 to 0.999 µM

O=C(Nc1ccc(-c2cnc(-c3ccc(NC(=O)N[C@@H]4CCN(C(=O)[C@@H](O)c5ccccc5)C4)cc3)o2)cc1)N[C@@H]1CCN(C(=O)[C@@H](O)c2ccccc2)C1 [FY-6, N′,N′″-(1,3-oxazole-2,5-diyldi-4,1-phenylene)bis(1-((3R)-1-((2S)-2-hydroxy-2-phenylacetyl)-3-pyrrolidinyl)urea)]
EC50 [1]: 0.1 to 0.999 µM

O=C(Nc1ccc(-c2cnc(-c3ccc(NC(=O)[C@@H]4C[C@@H](O)CN4C(=O)Cc4cccnc4)cc3)o2)cc1)[C@@H]1C[C@@H](O)CN1C(=O)Cc1cccnc1 [XY-45, (2S,4R,2′S,4′R)-N,N′-(1,3-oxazole-2,5-diyldi-4,1-phenylene)bis(4-hydroxy-1-(3-pyridinylacetyl)-2-pyrrolidinecarboxamide)]
EC50 [3]: 1 to 10 µM

O=C(Nc1ccc(-c2cc(-c3ccc(NC(=O)[C@@H]4CCCN4C(=O)c4nc5ccccc5s4)cc3)[nH]n2)cc1)[C@@H]1CCCN1C(=O)c1nc2ccccc2s1 [JG-41, (2S,2′S)-N,N′-(1H-pyrazole-3,5-diyldi-4,1-phenylene)bis(1-(1,3-benzothiazol-2-ylcarbonyl)-2-pyrrolidinecarboxamide)]
EC50 [1]: 0.1 to 0.999 µM
